# Measurements as given in ChEMBL document CHEMBL1795250, “Synthesis and base-pairing properties of C-nucleotides having 1-substituted 1H-1,2,3-triazoles” (Bioorg Med Chem Lett, 2009).
# Assays:
# Format in all cases: nucleic-acid assay
# Nucleic Acid [1] = assay: Stabilization of 5'-AGAGAGAAAGAAAAA-3' ssDNA sequence assessed as melting temperature at pH7 using 100 mM NaCl
# Nucleic Acid [2] = assay: Stabilization of 5'-AGAGAGAGAGAAAAA-3' ssDNA sequence assessed as melting temperature at pH7 using 100 mM NaCl
# Nucleic Acid [3] = assay: Stabilization of 5'-AGAGAGATAGAAAAA-3' ssDNA sequence assessed as melting temperature at pH7 using 100 mM NaCl
# Nucleic Acid [4] = assay: Stabilization of 5'-AGAGAGACAGAAAAA-3' ssDNA sequence assessed as melting temperature at pH7 using 100 mM NaCl
Structure (SMILES),Tm (Nucleic Acid [1]) [°C],Tm (Nucleic Acid [2]) [°C],Tm (Nucleic Acid [3]) [°C],Tm (Nucleic Acid [4]) [°C]
Cc1ccc(-n2cc([C@H]3C[C@H](OP(=O)(O)OC[C@H]4O[C@@H](n5cc(C)c(=O)[nH]c5=O)C[C@@H]4OP(=O)(O)OC[C@H]4O[C@@H](n5cc(C)c(N)nc5=O)C[C@@H]4OP(=O)(O)OC[C@H]4O[C@@H](n5cc(C)c(=O)[nH]c5=O)C[C@@H]4OP(=O)(O)OC[C@H]4O[C@@H](n5cc(C)c(N)nc5=O)C[C@@H]4OP(=O)(O)OC[C@H]4O[C@@H](n5cc(C)c(=O)[nH]c5=O)C[C@@H]4OP(=O)(O)OC[C@H]4O[C@@H](n5cc(C)c(N)nc5=O)C[C@@H]4OP(=O)(O)OC[C@H]4O[C@@H](n5cc(C)c(=O)[nH]c5=O)C[C@@H]4O)[C@@H](COP(=O)(O)O[C@H]4C[C@H](n5cc(C)c(=O)[nH]c5=O)O[C@@H]4COP(=O)(O)O[C@H]4C[C@H](n5cc(C)c(N)nc5=O)O[C@@H]4COP(=O)(O)O[C@H]4C[C@H](n5cc(C)c(=O)[nH]c5=O)O[C@@H]4COP(=O)(O)O[C@H]4C[C@H](n5cc(C)c(=O)[nH]c5=O)O[C@@H]4COP(=O)(O)O[C@H]4C[C@H](n5cc(C)c(=O)[nH]c5=O)O[C@@H]4COP(=O)(O)O[C@H]4C[C@H](n5cc(C)c(=O)[nH]c5=O)O[C@@H]4COP(=O)(O)O[C@H]4C[C@H](n5cc(C)c(=O)[nH]c5=O)O[C@@H]4CO)O3)nn2)cc1,39,42,38,36
Cc1cn([C@H]2C[C@H](OP(=O)(O)OC[C@H]3O[C@@H](n4cc(C)c(=O)[nH]c4=O)C[C@@H]3OP(=O)(O)OC[C@H]3O[C@@H](n4cc(C)c(N)nc4=O)C[C@@H]3OP(=O)(O)OC[C@H]3O[C@@H](n4cc(C)c(=O)[nH]c4=O)C[C@@H]3O)[C@@H](COP(=O)(O)O[C@H]3C[C@H](n4cc(C)c(=O)[nH]c4=O)O[C@@H]3COP(=O)(O)O[C@H]3C[C@H](n4cc(C)c(N)nc4=O)O[C@@H]3COP(=O)(O)O[C@H]3C[C@H](n4cc(C)c(=O)[nH]c4=O)O[C@@H]3COP(=O)(O)O[C@H]3C[C@H](n4cc(C)c(=O)[nH]c4=O)O[C@@H]3COP(=O)(O)O[C@H]3C[C@H](n4cc(C)c(=O)[nH]c4=O)O[C@@H]3COP(=O)(O)O[C@H]3C[C@H](n4cc(C)c(N)nc4=O)O[C@@H]3COP(=O)(O)O[C@H]3C[C@H](n4cc(C)c(=O)[nH]c4=O)O[C@@H]3COP(=O)(O)O[C@H]3C[C@H](n4cc(C)c(=O)[nH]c4=O)O[C@@H]3COP(=O)(O)O[C@H]3C[C@H](n4cc(C)c(=O)[nH]c4=O)O[C@@H]3COP(=O)(O)O[C@H]3C[C@H](n4cc(C)c(=O)[nH]c4=O)O[C@@H]3COP(=O)(O)O[C@H]3C[C@H](n4cc(C)c(=O)[nH]c4=O)O[C@@H]3CO)O2)c(=O)nc1N,52,42,42,39
